Assay: Behaviour with water (emulsion formation)
Assay type: physicochemical
Conditions: mit Wasser bei 20 C

CCCCCCCC/C=C\CCCCCCCCNCCCN [N-Oleyl-1,3-diammoniumpropanmonofluorophosphat]
Verhalten mit Wasser: stabile Emulsion
